In patent US20070190188A1, “Controlling Toxicity of Aminoquinoline Compounds” (The University of Mississippi, priority 2005, published 2007):

Legend:
Format in all cases: cell-based
[1] = system: pooled human liver microsomes; experiment: In vitro formation of methemoglobinemic metabolites with pooled human liver microsomes and human erythrocytes
Description: (§1) In one aspect of the present invention, an in vitro assay is developed for evaluation of biotransformation reactions leading to generation of methemoglobinemic metabolites of 8-aminoquinolines. This method uses simultaneous incubation of a test compound with the hepatic microsomes or Baculosomes® (microsomes prepared from insect cells infected with recombinant baculovirus containing a cDNA insert for a specific human P450 isozyme and NADPH-P450 reductase) and human erythrocytes followed by determination of methemoglobin formation. This allows the unstable metabolites generated in situ to react with the human erythrocytes.

CYP 1A2 = target: T1, CYP 1A2 (Homo sapiens, UniProt P05177); experiment: Methemoglobinemic metabolite formation with Baculosomes, CYP 1A2; settings: mean ± S.D. of four
T1 construct: purchased; host or cells: insect cells infected with recombinant baculovirus
T1 sequence (P05177 2-516 limits assumed): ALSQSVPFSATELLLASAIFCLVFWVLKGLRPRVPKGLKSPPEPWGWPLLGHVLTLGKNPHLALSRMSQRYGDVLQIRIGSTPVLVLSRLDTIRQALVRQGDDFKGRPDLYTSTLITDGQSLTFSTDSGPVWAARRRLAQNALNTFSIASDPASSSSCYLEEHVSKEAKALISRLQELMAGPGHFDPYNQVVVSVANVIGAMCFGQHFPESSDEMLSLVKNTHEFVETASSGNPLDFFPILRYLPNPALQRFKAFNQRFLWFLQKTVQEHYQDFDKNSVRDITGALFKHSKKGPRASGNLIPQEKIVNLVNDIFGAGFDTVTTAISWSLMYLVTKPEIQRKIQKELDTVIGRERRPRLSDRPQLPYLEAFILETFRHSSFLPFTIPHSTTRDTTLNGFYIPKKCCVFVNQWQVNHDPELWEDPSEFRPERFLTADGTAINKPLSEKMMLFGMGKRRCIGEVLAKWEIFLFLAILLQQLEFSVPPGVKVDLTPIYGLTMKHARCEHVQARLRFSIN
Description: (§2) This method uses simultaneous incubation of a test compound with the hepatic microsomes or Baculosomes® (microsomes prepared from insect cells infected with recombinant baculovirus containing a cDNA insert for a specific human P450 isozyme and NADPH-P450 reductase) and human erythrocytes followed by determination of methemoglobin formation. This allows the unstable metabolites generated in situ to react with the human erythrocytes.

CPY 2B6 = target: T2, CPY 2B6 (Homo sapiens, UniProt P20813); experiment: Methemoglobinemic metabolite formation with Baculosomes, CYP 2B6; settings: mean ± S.D. of four
T2 construct: purchased; host or cells: insect cells infected with recombinant baculovirus
T2 sequence (P20813 1-491): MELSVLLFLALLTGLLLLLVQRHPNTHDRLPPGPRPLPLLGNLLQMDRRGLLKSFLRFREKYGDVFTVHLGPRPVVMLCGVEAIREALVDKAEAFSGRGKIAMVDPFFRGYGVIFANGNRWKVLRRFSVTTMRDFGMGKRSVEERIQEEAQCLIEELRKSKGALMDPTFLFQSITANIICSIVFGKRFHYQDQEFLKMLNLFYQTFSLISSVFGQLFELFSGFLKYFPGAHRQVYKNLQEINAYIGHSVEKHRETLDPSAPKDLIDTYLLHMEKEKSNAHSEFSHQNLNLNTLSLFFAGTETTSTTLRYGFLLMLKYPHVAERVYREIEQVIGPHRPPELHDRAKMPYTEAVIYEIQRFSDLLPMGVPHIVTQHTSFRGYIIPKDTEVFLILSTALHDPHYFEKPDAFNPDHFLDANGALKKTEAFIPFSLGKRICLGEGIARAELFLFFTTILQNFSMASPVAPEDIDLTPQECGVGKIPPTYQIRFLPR
Description: as §2

CYP 2A6 = target: T3, CYP 2A6 (Homo sapiens, UniProt P11509); experiment: Methemoglobinemic metabolite formation with Baculosomes, CYP 2A6; settings: mean ± S.D. of four
T3 construct: purchased; host or cells: insect cells infected with recombinant baculovirus
T3 sequence (P11509 1-494): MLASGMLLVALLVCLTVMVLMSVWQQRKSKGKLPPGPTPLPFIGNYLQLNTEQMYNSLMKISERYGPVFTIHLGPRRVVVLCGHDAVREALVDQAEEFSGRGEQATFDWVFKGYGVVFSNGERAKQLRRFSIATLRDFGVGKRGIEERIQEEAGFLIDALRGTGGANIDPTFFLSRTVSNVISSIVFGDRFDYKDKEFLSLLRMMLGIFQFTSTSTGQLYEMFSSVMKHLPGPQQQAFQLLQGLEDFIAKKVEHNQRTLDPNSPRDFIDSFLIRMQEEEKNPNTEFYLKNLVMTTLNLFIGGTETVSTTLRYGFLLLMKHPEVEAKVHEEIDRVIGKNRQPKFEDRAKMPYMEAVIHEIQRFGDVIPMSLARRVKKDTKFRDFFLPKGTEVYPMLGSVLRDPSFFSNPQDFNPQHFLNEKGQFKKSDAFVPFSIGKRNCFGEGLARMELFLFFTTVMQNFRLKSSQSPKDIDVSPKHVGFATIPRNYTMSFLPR
Description: as §2

CYP 2C8 = target: T4, CYP 2C8 (Homo sapiens, UniProt P10632); experiment: Methemoglobinemic metabolite formation with Baculosomes, CYP 2C8; settings: mean ± S.D. of four
T4 construct: purchased; host or cells: insect cells infected with recombinant baculovirus
T4 sequence (P10632 1-490): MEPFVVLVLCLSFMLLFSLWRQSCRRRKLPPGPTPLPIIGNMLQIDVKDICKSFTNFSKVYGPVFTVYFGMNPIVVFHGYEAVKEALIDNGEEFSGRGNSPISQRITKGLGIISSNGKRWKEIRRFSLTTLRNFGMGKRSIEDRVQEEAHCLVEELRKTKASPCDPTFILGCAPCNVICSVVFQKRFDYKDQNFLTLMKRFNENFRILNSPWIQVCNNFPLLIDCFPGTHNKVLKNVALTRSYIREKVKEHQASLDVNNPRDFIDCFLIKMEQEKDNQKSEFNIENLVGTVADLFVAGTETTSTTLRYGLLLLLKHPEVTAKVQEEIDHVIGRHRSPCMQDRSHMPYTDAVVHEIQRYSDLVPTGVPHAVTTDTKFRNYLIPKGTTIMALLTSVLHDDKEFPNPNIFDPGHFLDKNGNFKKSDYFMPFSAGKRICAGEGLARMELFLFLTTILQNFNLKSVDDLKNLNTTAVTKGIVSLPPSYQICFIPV
Description: as §1

CYP 2C9 = target: T5, CYP 2C9 (Homo sapiens, UniProt P11712); experiment: Methemoglobinemic metabolite formation with Baculosomes, CYP 2C9; settings: mean ± S.D. of four
T5 construct: purchased; host or cells: insect cells infected with recombinant baculovirus
T5 sequence (P11712 whole entry): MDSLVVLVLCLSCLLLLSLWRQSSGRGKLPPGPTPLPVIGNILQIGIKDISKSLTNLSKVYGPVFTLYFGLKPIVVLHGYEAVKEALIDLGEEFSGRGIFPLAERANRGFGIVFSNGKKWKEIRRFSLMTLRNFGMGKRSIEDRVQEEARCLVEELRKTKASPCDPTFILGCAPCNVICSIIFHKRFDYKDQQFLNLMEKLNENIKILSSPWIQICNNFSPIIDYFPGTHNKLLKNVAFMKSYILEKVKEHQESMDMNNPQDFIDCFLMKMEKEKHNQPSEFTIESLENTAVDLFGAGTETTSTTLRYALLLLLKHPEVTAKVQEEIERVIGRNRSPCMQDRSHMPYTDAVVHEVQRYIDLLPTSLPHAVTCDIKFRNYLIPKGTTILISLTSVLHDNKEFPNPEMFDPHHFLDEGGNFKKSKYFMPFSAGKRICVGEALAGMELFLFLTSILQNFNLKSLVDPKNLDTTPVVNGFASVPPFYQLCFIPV
Description: as §2

COc1cc(N[C@H](C)CCCN)c2nccc(C)c2c1Oc1ccc(Cl)c(Cl)c1 [NPC1161B]
methemoglobin toxicity compared with primaquine and NPC 1161A ([1]; FIGS. 1 and 2, Table 1): significantly reduced methemoglobin toxicity | % methemoglobin formation, Pooled Human liver Microsomes ([1]; drug 100 μM, microsomes equivalent to 25 pmoles cytochrome P450, Mean ± S.D. of four): 7.455 ± 0.879% | formation of methemoglobenemic metabolites, Azithromycin ([1]; pooled human Liver Microsomes, 8-aminoquinoline with Azithromycin): 7.565 ± 1.276 | formation of methemoglobenemic metabolites, Erythromycin ([1]; pooled human Liver Microsomes, 8-aminoquinoline with Erythromycin): 0 | formation of methemoglobenemic metabolites, Microsomes ([1]; pooled human Liver Microsomes, no macrolide): 7.697 ± 1.392 | methemoglobin toxicity with macrolide antibiotics troleandomycin and erythromycin ([1]; pooled human liver microsomes, FIG. 7 and 8): almost completely abolished | % methemoglobin formed, CYP 1A2 (CYP 1A2): 0.00% | % methemoglobin formed, CPY 2B6 (CPY 2B6): 2.855 ± 0.419% | % methemoglobin formed, CYP 2A6 (CYP 2A6): 2.135 ± 0.530% | % methemoglobin formed, CYP 2C8 (CYP 2C8): 1.353 ± 0.791% | % methemoglobin formed, CYP 2C9 (CYP 2C9): 3.690 ± 1.660%
